Results on 2 compounds are retold here after US20230133580A1, “MENTHOL-CONTAINING COMPOSITION” (SUNSHO PHARMACEUTICAL CO., LTD., priority 2020, published 2023).

A short description of series [1]: Encapsulation test C (interfacial tension against purified water). It counts as physicochemical. Conditions: against purified water. The protocol: The interfacial tension was measured with the force tensiometer SIGMA 702 (KSV Instruments LTD).
The nature of series [2]: l-Menthol dissolution test. It counts as physicochemical. Conditions: for Dissolution: stored at 20° C. The protocol:
The solution was stored at 20° C. and evaluated based on the time during which the solution was maintained in a liquid state without solidifying.
A sample that solidified before being cooled down to 20° C. [e.g., during the process of cooling down to a temperature below the melting point of l-menthol (generally 42 to 45° C.)] or immediately (e.g., within 30 minutes) after being stored at 20° C. was rated D. A sample that was maintained as a solution for a while (e.g., more than 30 minutes) but solidified in less than 24 hours was rated C.

In the case of `CCOC(=O)CC(=O)OCC` [Diethyl malonate], the interfacial tension in series [1] (samples containing 80 to 50 wt % l-menthol) is at least 5 mN/m. Also, the Dissolution result in series [2] (l-Menthol 50, solvent 50 pbw) was “B (A sample that solidified in 24 hours or more but less than 10 days was rated B)”; in series [2] (l-Menthol 60, solvent 40 pbw) it was “B (A sample that solidified in 24 hours or more but less than 10 days was rated B)”; in series [2] (l-Menthol 70, solvent 30 pbw), “B (A sample that solidified in 24 hours or more but less than 10 days was rated B)”; in series [2] (l-Menthol 80, solvent 20 pbw), “B (A sample that solidified in 24 hours or more but less than 10 days was rated B)”. Further, the “ability to dissolve menthol (rating)” value in series [2] (regardless of the menthol concentration) is listed as “B (A sample that solidified in 24 hours or more but less than 10 days was rated B)”.

With `CCOC(=O)CCCCCCCCC(=O)OCC` [Diethyl sebacate], the interfacial tension in series [1] (samples containing 70 to 50 wt % l-menthol) was at least 5 mN/m. Further, the Dissolution result in series [2] (l-Menthol 50, solvent 50 pbw) was “A (A sample that did not solidify in 10 days or more was rated A)”; in series [2] (l-Menthol 60, solvent 40 pbw), “A (A sample that did not solidify in 10 days or more was rated A)”; in series [2] (l-Menthol 70, solvent 30 pbw), “A (A sample that did not solidify in 10 days or more was rated A)”; in series [2] (l-Menthol 80, solvent 20 pbw) it was “C (A sample that was maintained as a solution for a while (e.g., more than 30 minutes) but solidified in less than 24 hours was rated C)”. For the same compound, the “ability to dissolve menthol (rating)” value in series [2] (menthol concentration ranging 70 to 50 wt %) is “A (A sample that did not solidify in 10 days or more was rated A)”.
